Assay results as given in patent publication US12311025B2, “Formulations for eye treatments” (Avedro, Inc., priority 2017, dated 2025).
Values after ≈ are worked out from the molar mass of the structure shown.

Tests used:
[1] = Solubility of FMN in co-solvents; format: physicochemical; details: organic solvent or mixture
Text: Other penetration-enhancing agents may include a non-ionic co-solvent as a tonicity agent in a formulation. Tonicity agents that are sufficiently low in MW can readily diffuse into the tissues. The therapeutic agent having good solubility in the co-solvent can experience enhanced delivery through the epithelium and into the stroma. Propylene glycol may be a penetration enhancer for topical formulations by this mechanism of action. Thus, the one or more therapeutic formulations 304 may include one or more co-solvents as tonicity agents 304c. A list of co-solvents that may be used to increase therapeutic agent delivery via this mechanism of action and suitable for ophthalmic use are shown in TABLE 2.
Both propylene glycol and glycerin may be employed as ingredients in dry eye drops. Glycerin has been evaluated for therapeutic agent delivery into the eye and is capable of penetrating the cornea. For instance, FMN has solubility in propylene glycol and glycerin that is greater than the total concentration in the formulation. As the co-solvent penetrates the tissues, it may carry some FMN into the tissues as well enhancing the delivery. Replacing the sodium chloride with glycerin or propylene glycol should not negatively impact therapeutic agent delivery of the FMN.

[2] = cited from earlier work

| solubility ([1]; in ethanol) [µg/mL] | solubility ([1]; in glycerin) [µg/mL] | solubility ([1]; in propylene glycol) [µg/mL] | SMILES | solubility in water [2] [%] |
| --- | --- | --- | --- | --- |
| 80 (≈ 0.175 mM) | 8900 (≈ 19.5 mM) | 5700 (≈ 12.5 mM) | Cc1cc2nc3c(=O)[nH]c(=O)nc-3n(C[C@H](O)[C@H](O)[C@H](O)COP(=O)(O)O)c2cc1C [FMN, riboflavin-5′-phosphate] |  |
|  |  |  | CC1CCC(C(C)C)C(O)C1 (stereo not shown) [menthol] | 0.04 |
